Laboratory results taken from the supplement of paper PMC10307832.

Legend:
Assay in all cases: relative viability (nuclei count vs DMSO), 5 days (fraction); higher = more cells survive
Apatinib + Bortezomib = compound: N#CC1(c2ccc(NC(=O)c3cccnc3NCc3ccncc3)cc2)CCCC1 [Apatinib] + CC(C)C[C@H](NC(=O)[C@H](Cc1ccccc1)NC(=O)c1cnccn1)B(O)O [Bortezomib] (partner 0.002 µM)
In short: (§1)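 Medians of duplicate plates are given as relative viability. That measure is the nuclei count in treated wells divided by the count in vehicle wells. Counts were taken on 4× images of lung cancer cell lines in 1536-well plates, 5 days after pin-tool dosing the day after seeding with one drug alone or a fixed anchor-drug dose plus five library-drug doses (not always all listed) in √10 steps.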

Metformin + Tozasertib = compound: CN(C)C(=N)NC(=N)N [Metformin] + Cc1cc(Nc2cc(N3CCN(C)CC3)nc(Sc3ccc(NC(=O)C4CC4)cc3)n2)n[nH]1 [Tozasertib] (partner 0.1 µM)
In short: as §1

Apatinib + Foretinib = compound: N#CC1(c2ccc(NC(=O)c3cccnc3NCc3ccncc3)cc2)CCCC1 [Apatinib] + COc1cc2c(Oc3ccc(NC(=O)C4(C(=O)Nc5ccc(F)cc5)CC4)cc3F)ccnc2cc1OCCCN1CCOCC1 [Foretinib] (partner 0.25 µM)
In short: as §1

Apatinib + Linsitinib = compound: N#CC1(c2ccc(NC(=O)c3cccnc3NCc3ccncc3)cc2)CCCC1 [Apatinib] + C[C@]1(O)C[C@@H](c2nc(-c3ccc4ccc(-c5ccccc5)nc4c3)c3c(N)nccn32)C1 [Linsitinib] (partner 1 µM)
In short: as §1

Cell Line	relative viability (Apatinib + Bortezomib; first compound 0.08 µM)	relative viability (Apatinib + Bortezomib; first compound 0.253 µM)	relative viability (Apatinib + Bortezomib; first compound 0.8 µM)	relative viability (Apatinib + Bortezomib; first compound 2.53 µM)	relative viability (Apatinib + Bortezomib; first compound 8 µM)	relative viability (Metformin + Tozasertib; first compound 31.62 µM)	relative viability (Metformin + Tozasertib; first compound 100 µM)	relative viability (Metformin + Tozasertib; first compound 316.23 µM)	relative viability (Metformin + Tozasertib; first compound 1000 µM)	relative viability (Apatinib + Foretinib; first compound 0.08 µM)	relative viability (Apatinib + Foretinib; first compound 0.253 µM)	relative viability (Apatinib + Foretinib; first compound 0.8 µM)	relative viability (Apatinib + Foretinib; first compound 2.53 µM)	relative viability (Apatinib + Foretinib; first compound 8 µM)	relative viability (Apatinib + Linsitinib; first compound 0.08 µM)	relative viability (Apatinib + Linsitinib; first compound 0.253 µM)	relative viability (Apatinib + Linsitinib; first compound 0.8 µM)	relative viability (Apatinib + Linsitinib; first compound 2.53 µM)	relative viability (Apatinib + Linsitinib; first compound 8 µM)	relative viability (Metformin + Tozasertib; first compound 10 µM)
201T	1.07	1.07	1.1	1.11	1.08	0.93	1.04	0.857	0.92	1.15	1.11	1.05	1.06	0.813	1.03	1.02	1.09	1.05	1.04	
A549										0.945	0.933	1	0.887	0.855	0.534	0.647	0.686	0.649	0.563	
A-427	1.08	0.955	1.01	0.886	0.945	0.255	0.224	0.185	0.245	1.22	0.828	1.03	1.01	0.598	1.1	1.06	1.07	1.11	1.09	0.225
ABC-1		0.333	0.311	0.335	0.316	0.163	0.172	0.158	0.189		1.27	0.961	1.1	1.02		0.861	0.869	0.839	0.882	0.223
BEN	0.688	0.868	0.876	0.458	0.871	0.494	0.439	0.516	0.395	0.477	0.548	0.668	0.558	0.726	0.864	0.933	0.88	0.81	0.699	0.476
CAL-12T	1.11	0.908	1.06	0.819	1.09	0.388	0.408	0.363	0.35	1.3	1.14	1.11	0.992	0.974	0.875	0.879	0.819	0.762	0.654	0.437
COR-L23	1.07	1.03	0.971	0.793	0.898	0.193	0.187	0.164	0.176	1.03	0.952	0.926	0.903	0.836	1.09	0.927	0.931	0.746	0.713	0.183
COR-L 105	1.12	0.897	0.901	0.605	0.658	0.336	0.37	0.307	0.321	1.36	1.11	1.23	0.768	0.849	0.994	1.15	0.705	0.985	0.676	0.355
Calu-6	0.969	1.12	0.96	0.789	0.814					0.994	0.915	0.799	0.766	0.791	0.948	1	0.912	0.928	0.85	
ChaGo-K-1		1.19	0.847	0.857	1.03	0.281	0.246	0.202	0.22	0.991	1	0.942	0.851	0.745						0.254
EBC-1	0.577	0.782	0.605	0.395	0.359					0.111	0.0844	0.0979	0.0995	0.1	0.935	0.981	0.955	0.685	0.567	
EKVX	0.941	1.21	0.967	0.98	1.01	0.519	0.443		0.391	0.71	0.872	0.951	0.615	0.775	1.04	1.09	0.985	0.862	0.795	0.337
EMC-BAC-2	1.08	0.987	1.07	0.843	0.918	0.307	0.317	0.289	0.32	1.08	1.12	1.04	0.919	0.858	0.815	0.816	0.766	0.72	0.78	0.29
EPLC-272H	1.04	0.905	0.806	0.738	0.666	0.212	0.288	0.192	0.238	0.773		0.802	0.671	0.394	1.19	1.07	1.23	1.23	1.12	0.292
H3255	0.729	0.791	0.657	0.612	0.723	0.551	0.615	0.562	0.592	0.973	0.795	0.757	0.753	0.675	1.17	0.819	0.954	0.896	0.836	0.603
HARA	1.14	1.07	1.14	0.992	1.18	0.0842	0.14	0.101	0.105	0.976	0.898	0.812	0.847	0.93	1.04	0.983	0.994	0.995	0.882	
HCC-15	1.09	1.03	0.972	0.88	0.992	0.489	0.395	0.412	0.521	1.1	0.866	1	0.999	0.834	1.02	0.937	0.813	0.878	0.878	
HCC-44	1.01	0.951	0.894	0.753	0.856	0.931	1.06	0.761	0.757						0.673	0.759	0.66	0.711	0.592	0.971
HCC-78	0.539	0.525	0.618	0.505	0.476	0.571	0.487	0.4	0.629	0.6	0.513	0.523	0.536	0.535	0.631	0.395	0.536	0.405	0.401	0.637
HCC-366	1.16	1.1	0.948	0.926	1.09	0.141	0.111	0.135	0.163	0.977	0.904	0.966	0.93	0.963	0.899	0.732	0.571	0.678	0.616	0.142

Cell Line	relative viability (Apatinib + Bortezomib; first compound 0.08 µM)	relative viability (Apatinib + Bortezomib; first compound 0.253 µM)	relative viability (Apatinib + Bortezomib; first compound 0.8 µM)	relative viability (Apatinib + Bortezomib; first compound 2.53 µM)	relative viability (Apatinib + Bortezomib; first compound 8 µM)	relative viability (Metformin + Tozasertib; first compound 31.62 µM)	relative viability (Metformin + Tozasertib; first compound 100 µM)	relative viability (Metformin + Tozasertib; first compound 316.23 µM)	relative viability (Metformin + Tozasertib; first compound 1000 µM)	relative viability (Apatinib + Foretinib; first compound 0.08 µM)	relative viability (Apatinib + Foretinib; first compound 0.253 µM)	relative viability (Apatinib + Foretinib; first compound 0.8 µM)	relative viability (Apatinib + Foretinib; first compound 2.53 µM)	relative viability (Apatinib + Foretinib; first compound 8 µM)	relative viability (Apatinib + Linsitinib; first compound 0.08 µM)	relative viability (Apatinib + Linsitinib; first compound 0.253 µM)	relative viability (Apatinib + Linsitinib; first compound 0.8 µM)	relative viability (Apatinib + Linsitinib; first compound 2.53 µM)	relative viability (Apatinib + Linsitinib; first compound 8 µM)	relative viability (Metformin + Tozasertib; first compound 10 µM)
HCC-827	0.977	0.907	1.07	1.05	1.09	0.422	0.442	0.387	0.439	1.05	1.04	1.01	1	0.763	0.995	0.937	1.01	0.956	0.737	
HOP-62	1.06		0.62	0.672	0.738	0.373	0.316	0.285	0.289	1.15	1.18	1.11	1.1	0.848	1.19		0.896	0.821	0.786	0.283
IA-LM	0.952	0.976	0.839	0.536	0.183					1.33	1.13	1.09	0.703	0.38	0.56	0.383	0.763	0.417	0.341	
LC-2-ad	0.937	1.15	1.22	0.946	0.832	0.412	0.524	0.469	0.506	0.935	0.89	0.904	0.947	0.868	0.863	0.831	0.864	0.652	0.507	
LK-2						0.189	0.183	0.174	0.174	1.37	1.13	1.13	1.1	0.645	0.602	0.356	0.631	0.503	0.399	0.163
NCI-H358						0.104	0.101	0.0897	0.0865	0.83	0.912	0.671	0.685	0.696	0.868	0.777	0.731	0.627	0.703	0.0917
NCI-H522						0.695	0.693	0.609	0.764											0.68
NCI-H1299	1.06	1.02	0.987	1.03	0.908					1.14	1.13	1.09	1.09	0.941	0.989	0.984	0.958	0.853	0.77	
NCI-H1395						0.752	0.867	0.83	0.738	1.02	1.01	1.04	0.99	1.02	1.19	1.08	1.16	1.07	0.847	0.727
NCI-H1563	0.762	0.963	0.811	0.737	0.762					0.897	0.996	0.884	0.812	0.897	1.28	1.22	1.13	1.12	1.03	
NCI-H1648						0.656	0.859	0.706	0.742											0.474
NCI-H1650	0.19	0.219	0.198	0.184	0.188	0.443	0.496	0.442	0.364		1.07	0.959	0.923	0.81						0.433
NCI-H1703	0.325	0.297	0.257	0.175	0.154					0.37	0.345	0.31	0.297	0.37	0.458	0.657	0.441	0.0986	0.132	
NCI-H1792	0.917	1.05	0.957	0.906	0.968										0.719	0.51	0.502	0.491	0.641	
NCI-H1793							0.5	0.469	0.588	0.761	0.585	0.507	0.601	0.475	0.974	0.931	0.716	0.599	0.685	0.459
NCI-H1944						0.279	0.288	0.245	0.297	0.869	0.942	0.691	0.807	0.603	1.19	1.22	1.06	1.25	1.26	0.314
NCI-H2170						0.733	0.779	0.758	0.693	1.04	0.958	0.978	0.983	0.846						0.731
NCI-H2342						0.447	0.618	0.35	0.276	1.01	1.05	1.02	0.983	0.936						0.507
SK-MES-1						0.693	0.75	0.662	0.771	1.02	0.935	0.967	0.838	0.896	1.13	0.975	1.1	1.07	0.942	0.624
SW 900						0.482	0.658	0.461	0.657	1.06	0.921	0.822	0.584	0.605						0.476
